From paper PMC7587356, “High-Throughput Screening for Inhibitors of the SARS-CoV-2 Protease Using a FRET-Biosensor” (Molecules, 2020)
Counter-ions that a name gives are not always drawn. Like-named read-outs stand apart in the source and are kept apart here.

Molecular target: SARS-CoV-2 3CLpro (Severe acute respiratory syndrome coronavirus 2, UniProt P0DTD1)
Experiment: biochemical
Assay type: biochemical
Parameters: Replicate_1 / Replicate_2 / mean / mean (LOPAC_screen_w_protease): unit not given here
Conditions: for inhibition at 5 µM: 4 h; for mean (LOPAC screen with protease) / Replicate_1 (LOPAC screen with protease) / Replicate_2 (LOPAC screen with protease): primary screen at 5 µM
[1] = sheet LOPAC_screen_w_protease, primary screen of LOPAC1280 at 5 µM with protease, mean of the two replicates
[2] = sheet LOPAC_screen_w_protease, primary screen of LOPAC1280 at 5 µM with protease, replicate 1
[3] = sheet LOPAC_screen_w_protease, primary screen of LOPAC1280 at 5 µM with protease, replicate 2
[4] = read-out: Replicate_1 (LOPAC_screen_w_protease)
[5] = read-out: Replicate_2 (LOPAC_screen_w_protease)
[6] = sheet LOPAC_screen_w_protease, primary screen with protease, mean of two replicates
[7] = sheet LOPAC_screen_w_protease, primary screen with protease, replicate 1
[8] = sheet LOPAC_screen_w_protease, primary screen with protease, replicate 2
[9] = LOPAC1280 primary screen with protease, 5 µM compound, mean of the two replicates
[10] = LOPAC1280 primary screen with protease, 5 µM compound, replicate 1
[11] = LOPAC1280 primary screen with protease, 5 µM compound, replicate 2
[12] = sheet LOPAC_screen_w_protease, primary screen with protease, 5 µM, mean of two replicates, read-out: mean
[13] = sheet LOPAC_screen_w_protease, primary screen with protease, 5 µM, replicate 1, read-out: Replicate_1
[14] = sheet LOPAC_screen_w_protease, primary screen with protease, 5 µM, replicate 2, read-out: Replicate_2
[15] = read-out: Replicate_1 (LOPAC screen with protease)
[16] = read-out: Replicate_2 (LOPAC screen with protease)
[17] = read-out: mean (LOPAC screen with protease)
[18] = LOPAC1280 primary screen with protease, 5 µM compound, mean of two replicates
[19] = LOPAC1280 primary screen with protease, 5 µM compound, replicate 1, read-out: Replicate_1 (LOPAC_screen_w_protease)
[20] = LOPAC1280 primary screen with protease, 5 µM compound, replicate 2, read-out: Replicate_2 (LOPAC_screen_w_protease)
[21] = sheet LOPAC_screen_w_protease, mean of two replicates
[22] = sheet LOPAC_screen_w_protease, replicate 1
[23] = sheet LOPAC_screen_w_protease, replicate 2
[24] = sheet LOPAC_screen_w_protease, primary screen with protease, 5 µM, mean of two replicates
[25] = sheet LOPAC_screen_w_protease, primary screen with protease, 5 µM, replicate 1
[26] = sheet LOPAC_screen_w_protease, primary screen with protease, 5 µM, replicate 2

C/C=C1\C(=O)C[C@H]2[C@@H]3CCC4=CC(=O)CC[C@]4(C)[C@H]3CC[C@]12C [(Z)-Gugglesterone]
mean [1]: 3.352 | Replicate_1 [2]: 5.164 | Replicate_2 [3]: 1.54

O=P1(N(CCCl)CCCl)NCCCO1 (centres unmarked) [Cyclophosphamide monohydrate]
inhibition at 5 µM (read-out: Replicate_1): -1.54% | inhibition at 5 µM (read-out: Replicate_2): 3.01% | inhibition at 5 µM (read-out: mean): 0.736%

CC(NC(C)(C)C)C(=O)c1cccc(Cl)c1 (centres unmarked) [Bupropion hydrochloride]
inhibition at 5 µM (read-out: Replicate_1): 2.66% | inhibition at 5 µM (read-out: Replicate_2): 2.67% | inhibition at 5 µM (read-out: mean): 2.67%

O=C(O)Cc1ccccc1Nc1c(Cl)cccc1Cl [Diclofenac sodium]
mean (LOPAC_screen_w_protease): 1.426 | inhibition at 5 µM [4]: 3.59% | inhibition at 5 µM [5]: -0.743%

COC(=O)N1CCN(C(=O)Cc2ccc(Cl)c(Cl)c2)C(CN2CCCC2)C1.O=C(O)/C=C/C(=O)O (centres unmarked) [GR-89696 fumarate]
mean [6]: 2.523 | Replicate_1 [7]: 2.9956 | Replicate_2 [8]: 2.05

Br.COc1ccccc1N1CCN(CCCCN2C(=O)c3ccccc3C2=O)CC1 [NAN-190 hydrobromide]
mean (LOPAC_screen_w_protease) [9]: 1.999 | Replicate_1 (LOPAC_screen_w_protease) [10]: 4.031 | Replicate_2 (LOPAC_screen_w_protease) [11]: -0.03323

COc1ccccc1OCC(O)CN1CCN(CC(=O)Nc2c(C)cccc2C)CC1 (centres unmarked) [Ranolazine dihydrochloride]
inhibition at 5 µM (sheet LOPAC_screen_w_protease, LOPAC1280 at 5 µM, mean of two replicates, read-out: mean): 0.975% | inhibition at 5 µM (sheet LOPAC_screen_w_protease, LOPAC1280 at 5 µM, replicate 1, read-out: Replicate_1): 1.18% | inhibition at 5 µM (sheet LOPAC_screen_w_protease, LOPAC1280 at 5 µM, replicate 2, read-out: Replicate_2): 0.768%

NC1(C(=O)O)CCc2cc(C(=O)O)ccc21 (centres unmarked) [AIDA]
mean [1]: 3.327 | Replicate_1 [2]: 3.929 | Replicate_2 [3]: 2.7246

CCN1CCC[C@H]1CNC(=O)c1c(OC)ccc(I)c1O [S(-)-IBZM]
mean [6]: 2.422 | Replicate_1 [7]: 3.86 | Replicate_2 [8]: 0.9843

N#C/C(=C\c1ccc(O)c(O)c1)C(=O)NCc1ccccc1 [Tyrphostin AG 490]
inhibition at 5 µM (sheet LOPAC_screen_w_protease, primary screen with protease, compound at 5 µM, mean of two replicates, read-out: mean): 2.61% | inhibition at 5 µM (sheet LOPAC_screen_w_protease, primary screen with protease, compound at 5 µM, replicate 1, read-out: Replicate_1): 3.18% | inhibition at 5 µM (sheet LOPAC_screen_w_protease, primary screen with protease, compound at 5 µM, replicate 2, read-out: Replicate_2): 2.05%

CC(NCCc1ccc(O)cc1)C(O)c1ccc(O)cc1 (centres unmarked) [Ritodrine hydrochloride]
inhibition at 5 µM [12]: -0.392% | inhibition at 5 µM [13]: -0.659% | inhibition at 5 µM [14]: -0.126%

Oc1cc2c(cc1O)[C@H]1c3ccccc3CN[C@@H]1CC2 (racemic) [Dihydrexidine hydrochloride]
inhibition at 5 µM [15]: 96.2% | inhibition at 5 µM [16]: 98.8% | inhibition at 5 µM [17]: 97.5%

C/C(=C\c1ccc(C(=O)O)cc1)c1ccc2c(c1)C(C)(C)CCC2(C)C [TTNPB]
mean [1]: 3.657 | Replicate_1 [2]: 5.544 | Replicate_2 [3]: 1.7694

Cl.c1ccc2nc(C3=NCCN3)ccc2c1 [BU224 hydrochloride]
mean (LOPAC_screen_w_protease) [18]: 1.603 | Replicate_1 (LOPAC_screen_w_protease) [10]: 1.353 | Replicate_2 (LOPAC_screen_w_protease) [11]: 1.8522

O=C(O)[C@H]1CCCN[C@H]1C(=O)O (racemic) [(±)-cis-Piperidine-2,3-dicarboxylic acid]
mean (LOPAC_screen_w_protease) [18]: 1.527 | Replicate_1 (LOPAC_screen_w_protease) [10]: 0.9979 | Replicate_2 (LOPAC_screen_w_protease) [11]: 2.056

CC(C)C(=O)Nc1ccc([N+](=O)[O-])c(C(F)(F)F)c1 [Flutamide]
inhibition at 5 µM [12]: 0.293% | inhibition at 5 µM [13]: 2.71% | inhibition at 5 µM [14]: -2.13%

CC(C)C[C@H](NC(=O)[C@@H](O)[C@H](N)Cc1ccccc1)C(=O)O [Bestatin hydrochloride]
inhibition at 5 µM [19]: 1.1% | inhibition at 5 µM [20]: 3.15% | mean (LOPAC_screen_w_protease) [9]: 2.127

NCCS(=O)(=O)O [Taurine]
inhibition at 5 µM [19]: 2.66% | inhibition at 5 µM [20]: 1.18% | mean (LOPAC_screen_w_protease) [9]: 1.917

N=C(N)N1CCc2ccccc2C1 [Debrisoquin sulfate]
inhibition at 5 µM (read-out: Replicate_1): 2.87% | inhibition at 5 µM (read-out: Replicate_2): 3.04% | inhibition at 5 µM (read-out: mean): 2.96%

O=C(O)Cc1ccc(O)c(O)c1 [3,4-Dihydroxyphenylacetic acid]
inhibition at 5 µM [15]: 41.7% | inhibition at 5 µM [16]: 44.4% | inhibition at 5 µM [17]: 43.1%

C[C@H](Cc1ccc2c(c1)OC(C(=O)[O-])(C(=O)[O-])O2)NC[C@H](O)c1cccc(Cl)c1.[Na+].[Na+] [CL 316,243]
Replicate_1 (LOPAC_screen_w_protease): 0.6829 | Replicate_2 (LOPAC_screen_w_protease): 2.815 | mean (LOPAC_screen_w_protease): 1.749

O=C(O)c1nn(Cc2ccc(Cl)cc2Cl)c2ccccc12 [Lonidamine]
inhibition at 5 µM [12]: 0.331% | inhibition at 5 µM [13]: 0.572% | inhibition at 5 µM [14]: 0.0889%

CCn1cc(C(=O)O)c(=O)c2ccc(Cc3ccccc3)nc21 [Amfonelic acid]
inhibition at 5 µM (sheet LOPAC_screen_w_protease, primary screen of LOPAC1280 at 5 µM with protease, mean of the two replicates, read-out: mean): 3.23% | inhibition at 5 µM (sheet LOPAC_screen_w_protease, primary screen of LOPAC1280 at 5 µM with protease, replicate 1, read-out: Replicate_1): 4.99% | inhibition at 5 µM (sheet LOPAC_screen_w_protease, primary screen of LOPAC1280 at 5 µM with protease, replicate 2, read-out: Replicate_2): 1.47%

CC(C)[C@@H]1NC(=O)[C@H](CCCCN)NC(=O)[C@@H](Cc2c[nH]c3ccccc23)NC(=O)[C@H](Cc2ccc(O)cc2)NC(=O)[C@H](C)N(C)C(=O)[C@H](Cc2ccccc2)NC1=O [Seglitide]
inhibition at 5 µM [19]: 3.58% | inhibition at 5 µM [20]: -0.291% | mean (LOPAC_screen_w_protease) [18]: 1.643

CNCC(O)c1ccc(O)cc1 (racemic) [(±)-Synephrine]
mean (LOPAC_screen_w_protease) [18]: 1.431 | Replicate_1 (LOPAC_screen_w_protease) [10]: 1.098 | Replicate_2 (LOPAC_screen_w_protease) [11]: 1.765

NS(=O)(=O)c1cccc2c1c([N+](=O)[O-])cc1nc([O-])c([O-])nc12.[Na+].[Na+] [NBQX disodium]
mean (LOPAC screen with protease) [21]: 8.586 | Replicate_1 (LOPAC screen with protease) [22]: 5.7201 | Replicate_2 (LOPAC screen with protease) [23]: 11.4514

CC1CN(S(=O)(=O)c2cccc3cnccc23)CCN1.Cl.Cl (centres unmarked)
mean [6]: 2.412 | Replicate_1 [7]: 3.532 | Replicate_2 [8]: 1.292

FC(F)(F)c1ccccc1-n1ccnc1 [1-[2-(Trifluoromethyl)phenyl]imidazole]
mean [24]: -0.5336 | Replicate_1 [25]: 0.8297 | Replicate_2 [26]: -1.897

Cc1nc2c([nH]1)c(=O)n(C)c(=O)n2Cc1ccco1 [Furafylline]
inhibition at 5 µM [19]: 3.1% | inhibition at 5 µM [20]: -0.41% | mean (LOPAC_screen_w_protease) [18]: 1.344

C=CC[C@H](N)C(=O)O [L-allylglycine]
mean [24]: 0.3305 | Replicate_1 [25]: -0.7105 | Replicate_2 [26]: 1.372

N[C@@H](COP(=O)(O)O)C(=O)O [O-Phospho-L-serine]
mean (sheet LOPAC_screen_w_protease, LOPAC1280 primary screen with protease, 5 µM compound, mean of the two replicates): 5.279 | Replicate_1 (sheet LOPAC_screen_w_protease, LOPAC1280 primary screen with protease, 5 µM compound, replicate 1): 3.193 | Replicate_2 (sheet LOPAC_screen_w_protease, LOPAC1280 primary screen with protease, 5 µM compound, replicate 2): 7.365

CN/C(=N/CCSCc1nc[nH]c1C)NC#N [Cimetidine]
inhibition at 5 µM (read-out: Replicate_1): 1.76% | inhibition at 5 µM (read-out: Replicate_2): 2.91% | inhibition at 5 µM (read-out: mean): 2.34%

CC(=O)NBr [N-Bromoacetamide]
mean (LOPAC_screen_w_protease) [9]: 1.955 | Replicate_1 (LOPAC_screen_w_protease) [10]: 1.503 | Replicate_2 (LOPAC_screen_w_protease) [11]: 2.407

OC[C@H]1O[C@@H](n2cnc3c(N[C@H]4CC5CCC4C5)ncnc32)[C@H](O)[C@@H]1O (stereo partly drawn) [(S)-ENBA]
mean (sheet LOPAC_screen_w_protease, primary screen with protease, compound at 5 µM, mean of two replicates): 2.65 | Replicate_1 (sheet LOPAC_screen_w_protease, primary screen with protease, compound at 5 µM, replicate 1): 4.26 | Replicate_2 (sheet LOPAC_screen_w_protease, primary screen with protease, compound at 5 µM, replicate 2): 1.041

COC(=O)[C@H]1[C@H]2C[C@@H]3c4[nH]c5cc(OC)ccc5c4CCN3C[C@H]2C[C@@H](OC(=O)c2cc(OC)c(OC)c(OC)c2)[C@@H]1OC [Reserpine]
inhibition at 5 µM [4]: 2.93% | inhibition at 5 µM [5]: 0.694%

CC(N)C(O)c1ccc(O)c(O)c1 (single isomer, unassigned; (-)) [(-)-alpha-Methylnorepinephrine]
mean (LOPAC screen with protease) [21]: 8.627 | Replicate_1 (LOPAC screen with protease) [22]: 8.881 | Replicate_2 (LOPAC screen with protease) [23]: 8.372

NC(=O)c1ncn([C@@H]2O[C@H](CO)[C@@H](O)[C@H]2O)c1O [Mizoribine]
inhibition at 5 µM (sheet LOPAC_screen_w_protease, LOPAC1280 primary screen with protease, 5 µM compound, mean of the two replicates, read-out: mean): 4.8% | inhibition at 5 µM (sheet LOPAC_screen_w_protease, LOPAC1280 primary screen with protease, 5 µM compound, replicate 1, read-out: Replicate_1): 4.56% | inhibition at 5 µM (sheet LOPAC_screen_w_protease, LOPAC1280 primary screen with protease, 5 µM compound, replicate 2, read-out: Replicate_2): 5.05%
